Our source for the IC50 values is US9073853B2, “Cycloalkane carboxylic acid derivatives as CXCR3 receptor antagonists” (Sanofi, priority 2011, dated 2015).

Broadly, the IC50 is the point on the concentration scale where inhibition reaches its midpoint.

The structures appear in SMILES notation.

Sequence of human CXCR3-A receptor (P49682 whole entry): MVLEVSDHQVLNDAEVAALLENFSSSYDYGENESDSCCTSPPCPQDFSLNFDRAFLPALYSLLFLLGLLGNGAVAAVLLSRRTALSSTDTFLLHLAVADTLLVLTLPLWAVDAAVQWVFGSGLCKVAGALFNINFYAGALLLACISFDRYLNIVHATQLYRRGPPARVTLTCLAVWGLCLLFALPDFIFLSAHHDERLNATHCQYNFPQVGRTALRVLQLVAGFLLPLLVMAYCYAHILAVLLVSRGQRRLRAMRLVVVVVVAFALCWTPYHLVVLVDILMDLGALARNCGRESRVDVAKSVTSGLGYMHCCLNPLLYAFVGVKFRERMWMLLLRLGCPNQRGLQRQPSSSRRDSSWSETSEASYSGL

The assay addresses human CXCR3-A receptor (Homo sapiens (Human), UniProt P49682). The assay can be described thus: 125I-CXCL10 competition radioligand binding assay. The following applies: displacement of 125I-CXCL10 from membranes of CHO cells expressing human recombinant CXCR3-A. The procedure:
IC50 values were determined for the test compounds and used to explore the structure-activity relationships (SAR). […] This cell line was registered in Sanofi-Aventis cell line bank. […] Cell suspension was diluted with PBS and cells were collected with centrifugation at 230 g for 10 minutes at 10° C. with a Juan centrifuge. […] The supernatant was carefully collected and centrifuged at 100,000×g for 60 min at 4° with a Beckman Avanti J30 centrifuge. […] Protein concentration was determined with Bio-Rad protein assay (Cat No 500-0006). Membrane aliquots were stored at -80° C. […] The composition of the binding assay buffer was determined in a course of detailed optimization procedure. […] Binding reaction was initiated by adding of membranes (10-20 μg proteins, approximately 5×10^5 cell equivalents) to the reaction mixture. After 60 minutes of incubation at 25° C. the reaction was terminated by rapid filtration over GF/B glass fiber filters that were pre-soaked with 0.5% polyethyleneimine (Fluka Analytical, P3143) for 1 hour, using a Skatron cell harvester device. Filters then were washed with 8 ml of ice-cold wash buffer (modified binding buffer in which BSA was omitted and the concentration of NaCl was adjusted to 500 mM concentration). The radioactivity retained on the filters was measured by a Wizard 1470 Automatic Gamma counter. Test compounds were dissolved prior to the binding assay at a concentration of 10 mM in DMSO. Stock solutions were stored at -20° C. for not longer than 3 months. […] Before adding these solutions of test compound to the binding reaction mixture, an intermediate dilution procedure was applied, in which 30 μL of each solution sample was transferred into a dilution tube containing 970 μL of binding assay buffer. […] The IC50 values and Hill slopes for competition binding data were obtained using nonlinear four-parametric curve fitting method.
(In general: In a radioligand displacement assay an active substance lowers the binding of a labelled ligand.)
Consider `COc1cc(CN(C[C@H]2CC[C@H](C(=O)O)CC2)C2CCc3cc(Cl)ccc32)ccc1CCCN1C(=O)CN(C)C1=O` (stereo partly drawn) [Example 50, trans-4-[((5-Chloro-indan-1-yl)-{3-methoxy-4-[3-(3-methyl-2,5-dioxo-imidazolidin-1-yl)-propyl]-benzyl}-amino)-methyl]-cyclohexanecarboxylic acid], for which the IC50 came to 1.24 µM. `COc1cc(CN(C[C@H]2CC[C@H](C(=O)O)CC2)[C@@H](C)c2ccc(Cl)cc2)ccc1CCCN1C(=O)CN(C)C1=O` [Example 51, trans-4-[([(S)-1-(4-Chloro-phenyl)-ethyl]-{3-methoxy-4-[3-(3-methyl-2,5-dioxo-imidazolidin-1-yl)-propyl]-benzyl}-amino)-methyl]-cyclohexanecarboxylic acid]: the IC50 came to 0.157 µM. In the case of `COc1cc(CN(C[C@H]2CC[C@H](C(=O)O)CC2)C2CCc3cc(Cl)ccc32)ccc1OCCN1C(=O)CN(C)C1=O` (stereo partly drawn) [Example 52, trans-4-[((5-Chloro-indan-1-yl)-{3-methoxy-4-[2-(3-methyl-2,5-dioxo-imidazolidin-1-yl)-ethoxy]-benzyl}-amino)-methyl]-cyclohexanecarboxylic acid], the IC50 was determined as 0.177 µM.

For the compound `COc1cc(CN(C[C@H]2CC[C@H](C(=O)O)CC2)[C@@H](C)c2ccc(Cl)cc2)ccc1OCCN1C(=O)CN(C)C1=O` [Example 53, trans-4-[([(S)-1-(4-Chloro-phenyl)-ethyl]-{3-methoxy-4-[2-(3-methyl-2,5-dioxo-imidazolidin-1-yl)-ethoxy]-benzyl}-amino)-methyl]-cyclohexanecarboxylic acid], the IC50 was determined as 0.789 µM. Next, `Cc1cc(CN(C[C@H]2CC[C@H](C(=O)O)CC2)[C@@H](C)c2ccc(Cl)cc2)ccc1CCCN1C(=O)CCC1=O` [Example 54, trans-4-[([(S)-1-(4-Chloro-phenyl)-ethyl]-{4-[3-(2,5-dioxo-pyrrolidin-1-yl)-propyl]-3-methyl-benzyl}-amino)-methyl]-cyclohexanecarboxylic acid]: 0.482 µM. Take `COc1cc(CN(C[C@H]2CC[C@H](C(=O)O)CC2)[C@@H](C)c2ccc(Cl)cc2)ccc1C#CCN1C(=O)CCC1=O` [Example 55, trans-4-[([(S)-1-(4-Chloro-phenyl)-ethyl]-{4-[3-(2,5-dioxo-pyrrolidin-1-yl)-prop-1-ynyl]-3-methoxy-benzyl}-amino)-methyl]-cyclohexanecarboxylic acid]: the IC50 came to 6.6 µM. For the compound `COc1cc(CN(C[C@H]2CC[C@H](C(=O)O)CC2)[C@@H](C)c2ccc(Cl)cc2)ccc1CCCN1C(=O)CCC1=O` [Example 56, trans-4-[([(S)-1-(4-Chloro-phenyl)-ethyl]-{4-[3-(2,5-dioxo-pyrrolidin-1-yl)-propyl]-3-methoxy-benzyl}-amino)-methyl]-cyclohexanecarboxylic acid], the IC50 is 0.215 µM.

In the case of `Cc1cc(CN(C[C@H]2CC[C@H](C(=O)O)CC2)C2CCc3cc(Cl)ccc32)ccc1OCCN1C(=O)CN(C)C1=O` (stereo partly drawn) [Example 57, trans-4-[((5-Chloro-indan-1-yl)-{3-methyl-4-[2-(3-methyl-2,5-dioxo-imidazolidin-1-yl)-ethoxy]-benzyl}-amino)-methyl]-cyclohexanecarboxylic acid], the IC50 is 0.2 µM. Take `Cc1cc(CN(C[C@H]2CC[C@H](C(=O)O)CC2)[C@@H](C)c2ccc(Cl)cc2)ccc1OCCn1c(=O)ccn(C)c1=O` [Example 58, trans-4-[([(S)-1-(4-Chloro-phenyl)-ethyl]-{3-methyl-4-[2-(3-methyl-2,6-dioxo-3,6-dihydro-2H-pyrimidin-1-yl)-ethoxy]-benzyl}-amino)-methyl]-cyclohexanecarboxylic acid]: the IC50 is 0.169 µM. Next, `COc1cc(CN(C[C@H]2CC[C@H](C(=O)O)CC2)C(C)c2ccc3c(c2)CCO3)ccc1OCCn1c(=O)ccn(C)c1=O` (stereo partly drawn) [Example 59, trans-4-[([1-(2,3-Dihydro-benzofuran-5-yl)-ethyl]-{3-methoxy-4-[2-(3-methyl-2,6-dioxo-3,6-dihydro-2H-pyrimidin-1-yl)-ethoxy]-benzyl}-amino)-methyl]-cyclohexanecarboxylic acid]: 0.195 µM; `Cc1cc(CN(C[C@H]2CC[C@H](C(=O)O)CC2)C(C)c2ccc3c(c2)CCO3)ccc1OCCn1c(=O)ccn(C)c1=O` (stereo partly drawn) [Example 60, trans-4-[([1-(2,3-Dihydro-benzofuran-5-yl)-ethyl]-{3-methyl-4-[2-(3-methyl-2,6-dioxo-3,6-dihydro-2H-pyrimidin-1-yl)-ethoxy]-benzyl}-amino)-methyl]-cyclohexanecarboxylic acid]: 0.345 µM. Next, `Cc1cc(CN(C[C@H]2CC[C@H](C(=O)O)CC2)C(C)c2ccc(C#N)cc2)ccc1OCCN1C(=O)CCC1=O` (stereo partly drawn) [Example 61, trans-4-[([1-(4-Cyano-phenyl)-ethyl]-{4-[2-(2,5-dioxo-pyrrolidin-1-yl)-ethoxy]-3-methyl-benzyl}-amino)-methyl]-cyclohexanecarboxylic acid]: 0.102 µM.

On to `COc1cc(CN(C[C@H]2CC[C@H](C(=O)O)CC2)C(C)c2ccc(C#N)cc2)ccc1OCCn1c(=O)ccn(C)c1=O` (stereo partly drawn) [Example 62, trans-4-[([1-(4-Cyano-phenyl)-ethyl]-{3-methoxy-4-[2-(3-methyl-2,6-dioxo-3,6-dihydro-2H-pyrimidin-1-yl)-ethoxy]-benzyl}-amino)-methyl]-cyclohexanecarboxylic acid], for which the IC50 is 0.2 µM. Consider `CCC(c1ccc(Cl)cc1)N(Cc1ccc(OCCN2C(=O)CCC2=O)c(OC)c1)C[C@H]1CC[C@H](C(=O)O)CC1` (stereo partly drawn) [Example 63, trans-4-[([1-(4-Chloro-phenyl)-propyl]-{4-[2-(2,5-dioxo-pyrrolidin-1-yl)-ethoxy]-3-methoxy-benzyl}-amino)-methyl]-cyclohexanecarboxylic acid], for which the IC50 is 0.062 µM.

For the compound `CCC(c1ccc(Cl)cc1)N(Cc1ccc(OCCn2c(=O)ccn(C)c2=O)c(C)c1)C[C@H]1CC[C@H](C(=O)O)CC1` (stereo partly drawn) [Example 64, trans-4-[([1-(4-Chloro-phenyl)-propyl]-{3-methyl-4-[2-(3-methyl-2,6-dioxo-3,6-dihydro-2H-pyrimidin-1-yl)-ethoxy]-benzyl}-amino)-methyl]-cyclohexanecarboxylic acid], the IC50 stood at 0.487 µM. Next, `CCC(c1ccc(Cl)cc1)N(Cc1ccc(OCCN2C(=O)CCC2=O)c(C)c1)C[C@H]1CC[C@H](C(=O)O)CC1` (stereo partly drawn) [Example 65, trans-4-[([1-(4-Chloro-phenyl)-propyl]-{4-[2-(2,5-dioxo-pyrrolidin-1-yl)-ethoxy]-3-methyl-benzyl}-amino)-methyl]-cyclohexanecarboxylic acid]: 0.121 µM; `CCC(c1ccc2c(c1)CCO2)N(Cc1ccc(CCCN2C(=O)CCC2=O)c(OC)c1)C[C@H]1CC[C@H](C(=O)O)CC1` (stereo partly drawn) [Example 66, trans-4-[([1-(2,3-Dihydro-benzofuran-5-yl)-propyl]-{4-[3-(2,5-dioxo-pyrrolidin-1-yl)-propyl]-3-methoxy-benzyl}-amino)-methyl]-cyclohexanecarboxylic acid]: 0.085 µM; `CCC(c1ccc(Cl)cc1)N(Cc1ccc(OCCN2C(=O)CN(C)C2=O)c(OC)c1)C[C@H]1CC[C@H](C(=O)O)CC1` (stereo partly drawn) [Example 67, trans-4-[([1-(4-Chloro-phenyl)-propyl]-{3-methoxy-4-[2-(3-methyl-2,5-dioxo-imidazolidin-1-yl)-ethoxy]-benzyl}-amino)-methyl]-cyclohexanecarboxylic acid]: 0.077 µM. For the compound `CCC(c1ccc(Cl)cc1)N(Cc1ccc(OCCn2c(=O)ccn(C)c2=O)c(OC)c1)C[C@H]1CC[C@H](C(=O)O)CC1` (stereo partly drawn) [Example 68, trans-4-[([1-(4-Chloro-phenyl)-propyl]-{3-methoxy-4-[2-(3-methyl-2,6-dioxo-3,6-dihydro-2H-pyrimidin-1-yl)-ethoxy]-benzyl}-amino)-methyl]-cyclohexanecarboxylic acid], the IC50 is 0.143 µM.

Consider `CCC(c1ccc2c(c1)CCO2)N(Cc1ccc(OCCN2C(=O)CCC2=O)c(C)c1)C[C@H]1CC[C@H](C(=O)O)CC1` (stereo partly drawn) [Example 69, trans-4-[([1-(2,3-Dihydro-benzofuran-5-yl)-propyl]-{4-[2-(2,5-dioxo-pyrrolidin-1-yl)-ethoxy]-3-methyl-benzyl}-amino)-methyl]-cyclohexanecarboxylic acid], for which the half-inhibitory concentration (IC50) was determined as 0.056 µM.

Take `CCC(c1ccc(Cl)cc1)N(Cc1ccc(OCCN2C(=O)CN(C)C2=O)c(C)c1)C[C@H]1CC[C@H](C(=O)O)CC1` (stereo partly drawn) [Example 70, trans-4-[([1-(4-Chloro-phenyl)-propyl]-{3-methyl-4-[2-(3-methyl-2,5-dioxo-imidazolidin-1-yl)-ethoxy]-benzyl}-amino)-methyl]-cyclohexanecarboxylic acid]: the IC50 was determined as 0.18 µM. `CCc1cc(CN(C[C@H]2CC[C@H](C(=O)O)CC2)[C@H]2CCc3cc(Cl)ccc32)ccc1OCCN1C(=O)CCC1=O` [Example 71, trans-4-[(((S)-5-Chloro-indan-1-yl)-{4-[2-(2,5-dioxo-pyrrolidin-1-yl)-ethoxy]-3-ethyl-benzyl}-amino)-methyl]-cyclohexanecarboxylic acid]: the concentration for half-maximal inhibition (IC50) turned out to be 0.176 µM.
